Earlier results in patent US20040180034A1, “Anthelmintic resinates and a method for their preparation” (priority 2003, published 2004).

O=C(C1CCCCC1)N1CC(=O)N2CCc3ccccc3C2C1 (centres unmarked) [Praziquantel, 4H-Pyrazino[2,1-a]isoquinolin-4-one, 2-(cyclohexylcarbonyl)-1,2,3,6,7,11b-hexahydro-(9CI)]
cats experiencing weakness, salivation, or nausea (after injection): approximately one cat in ten
animals experiencing nausea (oral form): at least one out of twenty
